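Growth conditions: 96-well plates. Treatment: test compound, 48 hours, 5 concentrations. Analysis: linear interpolation between bracketing concentrations; unreached endpoints set to highest concentration. GI50 is the concentration that inhibits growth by half. TGI marks complete inhibition of growth.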
Legend:
Assay in all cases: DTP human tumour cell line panel, 48 h
A498 renal = test system: A498 renal
ACHN renal = test system: ACHN renal
UO-31 renal = test system: UO-31 renal
SK-MEL-2 melanoma = test system: SK-MEL-2 melanoma
SNB-75 CNS = test system: SNB-75 CNS
U251 CNS = test system: U251 CNS
SNB-19 CNS = test system: SNB-19 CNS
COLO 205 colon = test system: COLO 205 colon
MOLT-4 leukemia = test system: MOLT-4 leukemia
EKVX NSCLC = test system: EKVX NSCLC

Work on N#Cc1c(N)nc(N2CCSCC2)c(C#N)c1-c1ccc(O)cc1 yielded a GI50 (A498 renal) of 13.4 µM, a TGI (A498 renal) of 29.8 µM and a GI50 (ACHN renal) of 18.9 µM. The TGI (ACHN renal) was 59 µM, the GI50 (UO-31 renal) was 23.2 µM and the TGI (UO-31 renal) was > 100 µM. The GI50 (SK-MEL-2 melanoma) was 51 µM, the TGI (SK-MEL-2 melanoma) was > 100 µM and the GI50 (SNB-75 CNS) was 10.9 µM. For the same compound, the TGI (SNB-75 CNS) was 30.4 µM, the GI50 (U251 CNS) was 15 µM and the TGI (U251 CNS) was 28.3 µM. For the same compound, the GI50 (SNB-19 CNS) was 27.9 µM, the TGI (SNB-19 CNS) was 98.9 µM and the GI50 (COLO 205 colon) was 19.8 µM. It also gave a TGI (COLO 205 colon) of 47.1 µM, a GI50 (MOLT-4 leukemia) of 11.6 µM and a TGI (MOLT-4 leukemia) of 34.5 µM. The GI50 (EKVX NSCLC) was 27.5 µM and the TGI (EKVX NSCLC) was > 100 µM.

For CCOC(=O)c1csc(NC(=O)COc2cccc(/C=C3\CSc4ccccc4C3=O)c2)n1, the GI50 (A498 renal) was 12.1 µM, the TGI (A498 renal) was 24.5 µM and the GI50 (ACHN renal) was 2.64 µM. It also gave a TGI (ACHN renal) of 8.99 µM, a GI50 (UO-31 renal) of 0.145 µM and a TGI (UO-31 renal) of 0.286 µM. The GI50 (SK-MEL-2 melanoma) was 0.448 µM, the TGI (SK-MEL-2 melanoma) was 0.989 µM and the GI50 (SNB-75 CNS) was 0.275 µM. For the same compound, the TGI (SNB-75 CNS) was 4.45 µM, the GI50 (U251 CNS) was 0.585 µM and the TGI (U251 CNS) was 1.31 µM. The GI50 (SNB-19 CNS) was 9.19 µM, the TGI (SNB-19 CNS) was 22.7 µM and the GI50 (COLO 205 colon) was 8.58 µM. For the same compound, the TGI (COLO 205 colon) was 22.6 µM, the GI50 (MOLT-4 leukemia) was > 100 µM and the TGI (MOLT-4 leukemia) was > 100 µM. The GI50 (EKVX NSCLC) was 2.29 µM and the TGI (EKVX NSCLC) was 19.9 µM.

For OC1CCC[C@@H]1Sc1ccccc1 (stereo not given in full), the TGI (A498 renal) was > 100 µM, the TGI (ACHN renal) was > 100 µM and the TGI (UO-31 renal) was > 100 µM. The TGI (SK-MEL-2 melanoma) was > 100 µM, the TGI (SNB-75 CNS) was > 100 µM and the TGI (U251 CNS) was > 100 µM. For the same compound, the TGI (SNB-19 CNS) was > 100 µM, the TGI (COLO 205 colon) was > 100 µM and the TGI (MOLT-4 leukemia) was > 100 µM. The TGI (EKVX NSCLC) was > 100 µM.

With CC(=O)NC(CCCCN(Cc1ccccc1)C(=O)N(CCCl)N=O)C(=O)NCc1ccccc1 (stereo not given) the TGI (A498 renal) was > 100 µM, the TGI (ACHN renal) was 41 µM and the TGI (UO-31 renal) was 57.2 µM. For the same compound, the TGI (SK-MEL-2 melanoma) was 62.2 µM, the TGI (SNB-75 CNS) was 63.8 µM and the TGI (U251 CNS) was 39.7 µM. The TGI (SNB-19 CNS) was 60.4 µM, the TGI (COLO 205 colon) was 67.2 µM and the TGI (MOLT-4 leukemia) was > 82.1 µM. The TGI (EKVX NSCLC) was 97.9 µM.

For CO[C@@H]1[C@H]2[C@@H](C)c3ccoc3C[C@@H]2[C@@]2(C)CC[C@H](OC(=O)c3ccccc3)[C@](C)(C(=O)O)[C@]2(O)[C@@H]1OC(=O)c1ccccc1, the GI50 (A498 renal) was 0.941 µM, the TGI (A498 renal) was 7.67 µM and the GI50 (ACHN renal) was 7.98 µM. For the same compound, the TGI (ACHN renal) was 18.9 µM, the GI50 (UO-31 renal) was > 50 µM and the TGI (UO-31 renal) was > 50 µM. For the same compound, the GI50 (SK-MEL-2 melanoma) was 24.1 µM, the TGI (SK-MEL-2 melanoma) was > 50 µM and the GI50 (SNB-75 CNS) was > 50 µM. For the same compound, the TGI (SNB-75 CNS) was > 50 µM, the GI50 (U251 CNS) was 5.87 µM and the TGI (U251 CNS) was 12 µM. For the same compound, the GI50 (SNB-19 CNS) was 16.1 µM, the TGI (SNB-19 CNS) was > 50 µM and the GI50 (COLO 205 colon) was 7.34 µM. For the same compound, the TGI (COLO 205 colon) was 15.2 µM, the GI50 (MOLT-4 leukemia) was 9.67 µM and the TGI (MOLT-4 leukemia) was 38.4 µM. The GI50 (EKVX NSCLC) was 11.1 µM and the TGI (EKVX NSCLC) was 45.6 µM.

In the case of COc1cc(-c2ccc(NC(=O)NC3CC3)c(OC)c2)ccc1NC(=O)NC1CC1, the GI50 (A498 renal) is reported as 19.2 µM, the TGI (A498 renal) is reported as > 100 µM and the GI50 (ACHN renal) is reported as 7.05 µM. For the same compound, the TGI (ACHN renal) was > 100 µM, the GI50 (UO-31 renal) was 5.27 µM and the TGI (UO-31 renal) was > 100 µM. The GI50 (SK-MEL-2 melanoma) was 35.5 µM, the TGI (SK-MEL-2 melanoma) was > 100 µM and the GI50 (SNB-75 CNS) was 12.1 µM. The TGI (SNB-75 CNS) was > 85.8 µM, the GI50 (U251 CNS) was 3.11 µM and the TGI (U251 CNS) was > 69.3 µM. The GI50 (SNB-19 CNS) was 8.87 µM, the TGI (SNB-19 CNS) was > 100 µM and the GI50 (COLO 205 colon) was 7.67 µM. For the same compound, the TGI (COLO 205 colon) was > 100 µM, the GI50 (MOLT-4 leukemia) was 3.33 µM and the TGI (MOLT-4 leukemia) was > 100 µM. For the same compound, the GI50 (EKVX NSCLC) was > 100 µM and the TGI (EKVX NSCLC) was > 100 µM.

For COC(=O)C(=O)C(C(=O)C=C(C)C)C(=O)C(=O)Nc1nc2ccc([N+](=O)[O-])cc2s1 (stereo not given), the TGI (A498 renal) was 91 µM, the TGI (ACHN renal) was > 100 µM and the TGI (UO-31 renal) was > 100 µM. For the same compound, the TGI (SK-MEL-2 melanoma) was > 100 µM, the TGI (SNB-75 CNS) was 63.7 µM and the TGI (U251 CNS) was > 100 µM. The TGI (SNB-19 CNS) was > 100 µM, the TGI (COLO 205 colon) was > 100 µM and the TGI (MOLT-4 leukemia) was > 100 µM. The TGI (EKVX NSCLC) was > 100 µM.

CCCCCCN(C)Cc1ccc(OCCOc2ccc(CN(C)CCCCCC)cc2)cc1 was tested, and the GI50 (A498 renal) was 1.24 µM, the TGI (A498 renal) was 3.17 µM and the GI50 (ACHN renal) was 1.62 µM. For the same compound, the TGI (ACHN renal) was 3.63 µM, the GI50 (UO-31 renal) was 1.04 µM and the TGI (UO-31 renal) was 5.01 µM. For the same compound, the GI50 (SK-MEL-2 melanoma) was 1.61 µM, the TGI (SK-MEL-2 melanoma) was 3.08 µM and the GI50 (SNB-75 CNS) was 1.2 µM. For the same compound, the TGI (SNB-75 CNS) was 2.57 µM, the GI50 (U251 CNS) was 1.08 µM and the TGI (U251 CNS) was 2.37 µM. The GI50 (SNB-19 CNS) was 1.71 µM, the TGI (SNB-19 CNS) was 3.87 µM and the GI50 (COLO 205 colon) was 0.659 µM. The TGI (COLO 205 colon) was 2.19 µM, the GI50 (MOLT-4 leukemia) was 2.48 µM and the TGI (MOLT-4 leukemia) was 10.5 µM. The GI50 (EKVX NSCLC) was 2.47 µM and the TGI (EKVX NSCLC) was 15.1 µM.

With NNC(=S)Nc1cccc(Cl)c1 the TGI (A498 renal) was > 100 µM, the TGI (ACHN renal) was > 100 µM and the TGI (UO-31 renal) was > 100 µM. For the same compound, the TGI (SK-MEL-2 melanoma) was > 100 µM, the TGI (SNB-75 CNS) was > 100 µM and the TGI (U251 CNS) was > 100 µM. The TGI (SNB-19 CNS) was > 100 µM, the TGI (COLO 205 colon) was > 100 µM and the TGI (MOLT-4 leukemia) was > 100 µM. The TGI (EKVX NSCLC) was > 100 µM.

With COc1cc2ncn(-c3cc(OCc4ccccc4C(F)(F)F)c(C(C)=O)s3)c2cc1OC the GI50 (A498 renal) was 4.1 µM, the TGI (A498 renal) was 17.2 µM and the GI50 (ACHN renal) was > 25 µM. The TGI (ACHN renal) was > 25 µM, the GI50 (UO-31 renal) was > 25 µM and the TGI (UO-31 renal) was > 25 µM. The GI50 (SK-MEL-2 melanoma) was > 25 µM, the TGI (SK-MEL-2 melanoma) was > 25 µM and the GI50 (SNB-75 CNS) was 19 µM. The TGI (SNB-75 CNS) was > 25 µM, the GI50 (U251 CNS) was > 25 µM and the TGI (U251 CNS) was > 25 µM. For the same compound, the GI50 (SNB-19 CNS) was > 25 µM, the TGI (SNB-19 CNS) was > 25 µM and the GI50 (COLO 205 colon) was > 25 µM. For the same compound, the TGI (COLO 205 colon) was > 25 µM, the GI50 (MOLT-4 leukemia) was > 25 µM and the TGI (MOLT-4 leukemia) was > 25 µM. For the same compound, the GI50 (EKVX NSCLC) was > 25 µM and the TGI (EKVX NSCLC) was > 25 µM.

CCN(CC)CC(C)(C)C(=O)/C=C/c1ccc(/C=C/C(=O)C(C)(C)CN(CC)CC)cc1 gave a TGI (A498 renal) of 3.49 µM, a TGI (ACHN renal) of 3.09 µM and a TGI (UO-31 renal) of 4.96 µM. For the same compound, the TGI (SK-MEL-2 melanoma) was 3.32 µM, the TGI (SNB-75 CNS) was 3.44 µM and the TGI (U251 CNS) was 1.57 µM. For the same compound, the TGI (SNB-19 CNS) was 4.21 µM, the TGI (COLO 205 colon) was 1.29 µM and the TGI (MOLT-4 leukemia) was 0.546 µM. The TGI (EKVX NSCLC) was 3.67 µM.

In the case of Cc1cc(NNC(=O)c2ccccc2O)nc(Nc2nc3ccccc3o2)n1, the GI50 (A498 renal) is reported as 1.53 µM, the TGI (A498 renal) is reported as 3.25 µM and the GI50 (ACHN renal) is reported as 1.02 µM. For the same compound, the TGI (ACHN renal) was 12.2 µM, the GI50 (UO-31 renal) was 0.622 µM and the TGI (UO-31 renal) was 1.91 µM. It also gave a GI50 (SK-MEL-2 melanoma) of 2.24 µM, a TGI (SK-MEL-2 melanoma) of 13.3 µM and a GI50 (SNB-75 CNS) of 3.49 µM. It also gave a TGI (SNB-75 CNS) of 17.4 µM, a GI50 (U251 CNS) of 0.628 µM and a TGI (U251 CNS) of 13.4 µM. It also gave a GI50 (SNB-19 CNS) of 1.86 µM, a TGI (SNB-19 CNS) of 21.3 µM and a GI50 (COLO 205 colon) of 2.75 µM. It also gave a TGI (COLO 205 colon) of 15.4 µM, a GI50 (MOLT-4 leukemia) of 1.31 µM and a TGI (MOLT-4 leukemia) of 7.88 µM. It also gave a GI50 (EKVX NSCLC) of 2.81 µM and a TGI (EKVX NSCLC) of 15.2 µM.

Source: PubChem BioAssay (NCI)
